System: PC9-GR cells expressing exogenous EI24 (9GR-O/E)
Assay: MTT assay in gefitinib-resistant PC9-GR cells over-expressing EI24
Type: cell-based, human
Conditions: 20 μM gefitinib, ectopic expression of EI24 in PC9-GR, FIG. 3
Procedure: A PC9 EGFR-mutant NSCLC cell line and its gefitinib-resistant derivative (PC9-GR) are described in a document by S. M. Kim et al. (Mol. Cancer Ther. vol. 11, pp. 2254-2264(2012)). All cells were cultured in an RPMI 1640 medium supplemented with 10% […]. A human EI24-overexpressing cell line and a control cell line were established by transfection with a plasmid including FLAG-tagged EI24 and the corresponding empty vector (pcDNA3.1), respectively. Human EI24-knockdown cell lines were established using a method described in a document by J. M. Choi et al. (Oncotarget, vol. 4, pp. 2383-2396(2013)). The shRNA sequences are as follows:
Cells were seeded at a density of 3×10^4 cells/well in a 96-well culture plate and incubated for 24 hours. The cells were exposed to drugs for 48 hours, and 0.4 mg/ml MTT was added until reaching a mid-height of each well. After incubating at 37° C. for 4 hours, formazan crystals in viable cells were solubilized with 100 μl of dimethyl sulfoxide (DMSO). The optical density of the formazan product was read at 590 nm on a microreader (Bio-Rad). All experiments were repeated three times.
In addition, the EI24 gene was over-expressed in a gefitinib-resistant cell line (PC9-GR) among PC9 cell lines and gefitinib was added thereto, and EI24 expression and apoptosis were measured through immunoblotting analysis and MTT assay, respectively. […]

With `COc1cc2ncnc(Nc3ccc(F)c(Cl)c3)c2cc1OCCCN1CCOCC1` [gefitinib] the cell viability was “up to 18%”.
